The test system of series [1] is glycosylase type DNA repair enzymes. Description: OLISA biochip: excision of modified DNA bases by nuclear extracts of treated fibroblasts, donor (FHN52). Particulars: for digestion activity (elimination of modified DNA bases formed as a result of oxidative stress): overall conclusion. In kind it is cell-based, human. As for the experimental part:
(§1) Fibroblasts were obtained from a breast sample from a person and from photo-protected skin of a person.
(§2) Fibroblasts from each of the donors, […] (FHN52) and […] (FHN 1C), were cultured and treated in the exponential growth phase.
(§3) Fibroblasts were treated with ergothioneine (AGI Dermatics, Newport, N.Y., USA) at a non-cytotoxic concentration of 4 mM for 24 hours.
(§4) Treatment of fibroblasts with ascorbic acid 2-glucoside (Siber Hegner, Miribel, France) was carried out at a non-cytotoxic concentration of 50 μM of […] for 24 hours.
(§5) Nuclear extracts were prepared in order to obtain protein solutions containing the repair enzymes of interest.
(§6) Extracts were used at a final concentration of 10 μg/ml.
(§7) OLISA technology (Bonnet-Duquennoy et al., Eur. J. Dermatol., 16, 2, 136-140 2006) was used to measure the excision of nucleic bases modified by glycosylase type DNA repair enzymes.
(§8) The principle (FIG. 1) is described in the publication entitled: “An oligonucleotide micro-array for the monitoring of repair enzyme activity toward different DNA damage”, Sauvaigo et al., Annal. Biochem. (2004); 333: 182-192.
(§9) Labelled oligonucleotide probes immobilised on the support generate synthetic double strand DNA containing in their base sequence, the altered base whose repair activity by cellular enzymes is being studied.
(§10) The probes were determined in order to study enzyme repair typical lesions resulting from exposure to oxidative stress (FIG. 2).
(§11) An OLISA format chip (96-well plate; bioMérieux, Grenoble, France) with 17 spots was functionalised by oligonucleotides containing the various lesions of interest (LAN synthesis, CEA, Grenoble, France).
(§12) Functionalised wells were incubated at 30° C. in the presence of the extract of interest.
(§13) The duration of digestion chosen is 45 minutes for the experiments. Extracts were deposited in four wells.
(§14) Thus for each lesion, the percentage of lesions remaining after the extract activity is determined by calculating the ratio of “extract” well signals with respect to control wells which represent 100% lesions (calculation carried out using the mean of the 8 values obtained).
(§15) Similarly, to determine the effect of each of the 2 active ingredients on specific digestion of extracts, data obtained for each of the lesions were normalised by data obtained with the control oligonucleotide normalised by the control.

Series [2] shares this test system. Description: OLISA biochip: excision of modified DNA bases by nuclear extracts of treated fibroblasts, donor (FHN 1C). It is filed as cell-based, human. Here is the method: as §1, §2, §3, §4, §5, §6, §7, §8, §9, §10, §11, §12, §13, §14, §15
Series [3] has as its system non-specific digestive activity (nuclease) of cell extracts. Description: OLISA biochip: non-specific digestion of control oligonucleotide (no lesion) by extracts of treated fibroblasts. In kind it is cell-based, human. Particulars: immediately after treatment, 2 donors. As for the experimental part: as §2, §3, §4, §5, §7
For this study, 2 spots per lesion of interest or control oligonucleotide (without lesion) and 3 spots used to direct the readings were used.
as §12, §13
In order to determine the effect of ergothioneine, on the one hand, and of ascorbic acid 2-glucoside, on the other, on non-specific digestion of extracts, data obtained with the control oligonucleotide normalised by the control were used.
In the same way, an analysis was carried out for each of the 2 donors tested. […]

The next series relates to keratinocytes. The settings on record: cited from earlier work.
In series [4] the test system is mouse skin cells placed in culture. Particulars: cited from earlier work.
In another series the test system is Fibroblasts. Description: Cytotoxicity of the treatment concentration on fibroblasts. In kind it is cell-based, human. The settings on record: 4 mM for 24 hours. Here is the method: as §3, §4
The next series relates to human cell lines. Particulars: cited from earlier work.
Setting [5] is: ascorbic acid 2-glucoside 50 μM, 24 hours after treatment, donor (FHN 52).
The mark [6] stands for this setting: ascorbic acid 2-glucoside 50 μM, 24 hours after treatment.
Setting [7] is: ergothioneine 4 mM 24 hours, rinsed, recultured without ergothioneine a further 24 hours, donor (FHN 52).
Where [8] appears, read: ergothioneine 4 mM 24 hours, donor (FHN 52), immediately after treatment.
[9] abbreviates: ergothioneine 4 mM 24 hours, immediately after treatment.

The structures appear in SMILES notation.

`O=C1O[C@H]([C@@H](O)CO)C(O)=C1O[C@H]1O[C@H](CO)[C@@H](O)[C@H](O)[C@H]1O` [ascorbic acid 2-glucoside, 2-O-α-D-Glucopyranosyl L-ascorbic acid]: in series [1] (setting [5]), the “residual percentage of 8-oxo-dG lesion” value was “decreases significantly”, the “residual percentage of formylamine lesion” value is given as “decreases significantly”, the “residual percentage of inosine lesion” value was “decreases significantly” and the “residual percentage of uracil lesion” value is recorded as “decreases significantly”. In addition, in series [1] (ascorbic acid 2-glucoside 50 μM, fibroblast extracts of donor), the “digestion activity (elimination of modified DNA bases formed as a result of oxidative stress)” value was “significantly increases”. Besides, in series [2] (setting [6]), the “residual percentage of 8 oxodG lesion” value is listed as “decreases significantly”, the “residual percentage of formylamine lesion” value is given as “decreases significantly”, the “residual percentage of inosine lesion” value is listed as “decreases significantly” and the “residual percentage of uracil lesion” value is given as “decreases significantly”. Moreover, in series [3] (ascorbic acid 2-glucoside 50 μM for 24 hours), the “effect on the control oligonucleotide (non-specific digestion)” value was “did not have a significant effect”. In the series on keratinocytes, the “protection against cytotoxicity caused by UVB” value is listed as “effective agent in protecting keratinocytes”. Moreover, the “cell DNA fragmentation after damage caused by UVA or UVB” value in series [4] is given as “reduction in the cell DNA fragmentation”.

Turning to `C[N+](C)(C)[C@@H](Cc1c[nH]c(=S)[nH]1)C(=O)[O-]` [ergothioneine], in series [1] (setting [7]), the “residual percentage of 8-oxo-dG lesion” value is “decreases significantly”, the “residual percentage of HmdU lesion” value was “decreases significantly”, the “residual percentage of ethenoda lesion” value is listed as “decreases significantly” and the “residual percentage of formylamine lesion” value is “decreases significantly”. In addition, the “residual percentage of inosine lesion” value in series [1] (setting [7]) is reported as “decreases significantly”. Moreover, in series [1] (setting [8]), the “residual percentage of formylamine lesion” value is given as “decreases significantly”, the “residual percentage of inosine lesion” value is “decreases significantly” and the “residual percentage of uracil lesion” value is listed as “decreases significantly”. The “residual percentage of 8 oxodG lesion” value in series [1] (ergothioneine 4 mM 24 hours, donor (FHN 52), immediately after treatment, normalised to control oligonucleotide) was “decreases significantly”. In addition, the “digestion activity (elimination of modified DNA bases formed as a result of oxidative stress)” value in series [1] (ergothioneine 4 mM, fibroblast extracts) was “significantly increases”. In series [2] (setting [9]), the “residual percentage of formylamine lesion” value is given as “decreases significantly” and the “residual percentage of uracil lesion” value is listed as “decreases significantly”. Also, the “effect on the control oligonucleotide (non-specific digestion)” value in series [3] (ergothioneine 4 mM for 24 hours) is “no significant effect”. The “cytotoxicity at treatment concentration” value with Fibroblasts is given as “non-cytotoxic”. Also, in the series on human cell lines, the “DNA oxidation caused by peroxinitrites” value is “inhibits” and the “cell death triggered by hydrogen peroxide” value is given as “inhibits”.

The values above are taken from patent publication US20090142285A1, “COSMETIC COMPOSITION COMPRISING ASCORBIC ACID 2-GLUCOSIDE AND ERGOTHIONEINE” (LVMH RECHERCHE, priority 2007, published 2009).
